The test system of one series is KRAS G12D in AGS cells. Nature of the series: pERK inhibition assay, AGS. It is filed as cell-based, human. Particulars: Homo sapiens, 4 hours incubation. An outline of the steps: (§1)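 NCI-H358, AGS and SW620 cells in RPMI-1640/10% FBS were plated overnight, then exposed to compound (0.5% DMSO final) for 4 h. After fixation and permeabilization, phospho-ERK was quantified by in-cell ELISA (HRP secondary, TMB, OD450); IC50 from a 4-parameter sigmoidal fit.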

For the next series, the system named is SW620 cells. Nature of the series: Cell viability assay, SW620. Particulars: Homo sapiens, SW-620, SW620, 72 hours, Cell Counting Kit-8, read-out: G12V IC50. The series is classed as cell-based, human. An outline of the steps:
(§2)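 Cells were plated at 5,000 (NCI-H358) or 2,000 (AGS, SW620) per well and incubated overnight. They were then treated with compound in 0.5% DMSO for 72 h. Viability was read with CCK-8 as OD450 minus OD650 after 2 h, and IC50 came from a 4-parameter sigmoidal fit.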
In general terms: Tetrazolium assays rely on reduction of a dye to a coloured formazan, in cell work by metabolically active cells.

Series [1] deals with KRAS G12C in NCI-H358 cells. Description: pERK inhibition assay, NCI-H358. Particulars: Homo sapiens, 4 hours incubation. It is filed as cell-based, human. An outline of the steps: as §1
In another series the test system is KRAS G12V in SW620. Nature of the series: pERK inhibition assay, SW620. It is filed as cell-based, human. Particulars: Homo sapiens, SW-620, SW620 cells, 4 hours incubation. The method, boiled down:
as §1

Series [2] concerns the target KRAS G12V binding to BRAF (Homo sapiens (Human), UniProt P01116+P62937, G12V). Description: KRAS-BRAF with CYPA (50 nM) interaction assay (TR-FRET), G12V. Particulars: GMPPNP loaded 6His-KRAS, GST-BRAF RBD. The protocol:
(§3) In this example, TR-FRET was also used to measure the compound or compound-CYPA dependent disruption of the KRAS G12C-BRAF complex. This protocol was also used to measure disruption of KRAS G12D or KRAS G12V binding to BRAF by a compound of the invention, respectively. In assay buffer containing 25 mM HEPES PH=7.4 (4-(2-hydroxyethyl)-1-piperazineethanesulfonic acid, Thermo, 15630080), 0.002% Tween20, 0.1% BSA, 100 mM NaCl, 5 mM MgCl2, 10 μM GMPPNP (Guanosine 5'-[β,γ-imido]triphosphate trisodium salt hydrate, Sigma, G0635), tagless CYPA, GMPPNP loaded 6His-KRAS proteins, and GST-BRAF^RBD were mixed in a well of a 384-well assay plate at final concentrations of 50 nM, 6.25 nM and 1 nM, respectively. Compound was present in plate wells as a 16-point 3-fold dilution series starting at a final concentration of 10 μM and incubated for 3 hours. A mixture of MAb Anti-6His-XL665 (Cisbio, 61HISXLB) and Mab anti-GST-TB cryptate (Cisbio, 61GSTTLB) was then added at a final concentration of 6.67 nM and 0.21 nM, respectively, and the plate was incubated for an additional 1.5 hours. TR-FRET signal was read on a […] microplate reader (Ex320 nm, Em 665/615 nm). Compounds that facilitate disruption of the KRAS-BRAF complex were identified as those eliciting a decrease in the TR-FRET ratio relative to DMSO control wells.
A general note: In TR-FRET formats the signal depends on donor and acceptor labels being close together.

Another series relates to AGS cells. Nature of the series: Cell viability assay, AGS. Particulars: Homo sapiens, 72 hours, Cell Counting Kit-8, read-out: G12D IC50. The series is classed as cell-based, human. An outline of the steps:
as §2

Series [3] has as its target T1, KRAS G12C-BRAF complex (Homo sapiens (Human), UniProt P01116+P62937, G12C). Nature of the series: KRAS-BRAF with CYPA (50 nM) interaction assay (TR-FRET), G12C. It is filed as binding. Particulars: GMPPNP loaded 6His-KRAS, GST-BRAF RBD. The protocol: as §3
In series [4] the target is KRAS G12D binding to BRAF (Homo sapiens (Human), UniProt P01116+P62937, G12D). Description: KRAS-BRAF with CYPA (50 nM) interaction assay (TR-FRET), G12D. Particulars: GMPPNP loaded 6His-KRAS, GST-BRAF RBD. As for the experimental part:
as §3

In a further series the test system is NCI-H358 cells. Nature of the series: Cell viability assay, NCI-H358. It is filed as cell-based, human. Particulars: Homo sapiens, NCI-H358, 72 hours, Cell Counting Kit-8, read-out: G12C IC50. The method, boiled down: as §2
Series [5] deals with T1, KRAS G12C-BRAF complex. Description: KRAS G12C-BRAF NanoBit assay. The series is classed as cell-based. Particulars: HEK293 cells, SmBit-KRAS G12C and BRAF RBD-LgBit, 3 hours incubation. The protocol:
This assay is to measure the ability of tested compounds in disruption of the KRAS G12C-BRAF complex at the cellular level, we established the NanoBit cellular assay in mammalian HEK293 (ATCC) cells. HEK293 cells were grown and maintained using DMEM medium (Thermo Fisher Scientific) with 10% fetal bovine serum and 1% penicillin/streptomycin. Both KRAS G12C and BRAF RBD were cloned into the NanoBit vectors ([…] vectors system, Promega) with the orientations SmBit-KRAS G12C and BRAF RBD-LgBit, respectively, and co-transfected into HEK293 cells. Cells were then selected with 100 μg/mL Hygromycin B (10687010, Thermo Fisher) and Blasticidin (5 μg/mL) for 4 weeks to get the stable cell pool. On the day of the assay, 75 nL of compound solution was presented in a 384-well assay plate as a 16-point 3-fold dilution starting from a final concentration of 30 μM in DMSO. Then cells were seeded at 10,000 cells/25 μL/well in a 384-well plate. After 3 hours of incubation, 6 μL of volume of Nano-Glo® Live Cell Substrate (Promega) was added into each well. Monitor luminescence using ultra384 model in Envision at 20 minutes. Compounds that facilitate disruption of the KRAS G12C-BRAF RBD complex were identified as those eliciting a decrease of luminescence relative to DMSO control wells.

A short description of series [6]: GSH reaction rates (inherent GSH reactivity). It is filed as in vitro ADME. Particulars: 6 h, 1 μM, pH 7.4. The protocol:
Therefore Strategy to minimize the GSH metabolism is very critical. Short T1/2 in inherent GSH reaction indicated high GSH reaction rate. Thus T1/2 in inherent GSH reaction assay was determined for the screening of candidates. Reference compounds and compounds of this invention potentially could form conjugation with GSH either through halogenated moieties substitution reaction or direct Michael addition reaction. This test was therefore performed to check GSH reactivity of listed compounds. For inherent GSH reactivity determination, compounds at 1 μM were incubated at 37° C. with and without 5 mM GSH for 0, 0.5, 1, 2, 4 and 6 h in 100 mM potassium phosphate buffer at pH 7.4. At the end of the designated time points, samples were quenched with acetonitrile containing 10 mM N-ethylmaleimide and an internal standard. Quenched samples were centrifuged, and supernatants were analyzed by LC-MS/MS for compound quantification.

Series [7] can be described thus: Human hepatocytes stability assay. The series is classed as in vitro ADME. The protocol:
The hepatocyte stability assay measures the rate of disappearance of a compound from incubations with cryopreserved suspension hepatocytes from human. Positive controls, including Midazolam, Raloxifene and Dextromethorphan, are included in every experiment. Incubations consist of 1 μM tested compound and suspension of human hepatocytes (1×10^6 cells/mL) in supplemented Williams' E Medium with […] and 0.5% Penicillin-streptomycin. The hepatocyte suspension was incubated with intermittent shaking 900 rpm at 37° C., in a 5% CO2 incubator. The reaction was stopped by adding methanol containing internal standard (2 μM Tolbutamide) at 2, 10, 20, 40, 60 and 120 minutes after compound addition, depletion of the parent compound was monitored by LC-MS/MS analysis.

T1 sequence (P01116-2 other isoform, or with tags, fused parts or gaps G12C): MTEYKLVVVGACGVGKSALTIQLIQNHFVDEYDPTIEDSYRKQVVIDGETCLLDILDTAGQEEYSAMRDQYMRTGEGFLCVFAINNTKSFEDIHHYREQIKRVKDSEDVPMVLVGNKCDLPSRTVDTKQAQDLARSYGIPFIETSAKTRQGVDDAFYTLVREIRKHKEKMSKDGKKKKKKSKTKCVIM
T1 sequence (P62937 whole entry): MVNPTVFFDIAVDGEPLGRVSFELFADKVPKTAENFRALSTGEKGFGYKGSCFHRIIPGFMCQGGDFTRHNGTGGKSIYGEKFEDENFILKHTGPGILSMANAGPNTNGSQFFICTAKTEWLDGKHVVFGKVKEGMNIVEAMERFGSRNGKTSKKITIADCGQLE
KRAS G12V binding to BRAF, sequence (P01116-2 other isoform, or with tags, fused parts or gaps G12V): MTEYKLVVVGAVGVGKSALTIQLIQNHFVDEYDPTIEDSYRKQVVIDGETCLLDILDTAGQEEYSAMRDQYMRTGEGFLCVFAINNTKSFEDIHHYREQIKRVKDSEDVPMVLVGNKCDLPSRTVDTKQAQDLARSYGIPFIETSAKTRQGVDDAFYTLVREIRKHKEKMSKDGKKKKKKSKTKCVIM
KRAS G12V binding to BRAF, sequence (P62937 whole entry): as the sequence (P62937 whole entry) above
KRAS G12D binding to BRAF, sequence (P01116-2 other isoform, or with tags, fused parts or gaps G12D): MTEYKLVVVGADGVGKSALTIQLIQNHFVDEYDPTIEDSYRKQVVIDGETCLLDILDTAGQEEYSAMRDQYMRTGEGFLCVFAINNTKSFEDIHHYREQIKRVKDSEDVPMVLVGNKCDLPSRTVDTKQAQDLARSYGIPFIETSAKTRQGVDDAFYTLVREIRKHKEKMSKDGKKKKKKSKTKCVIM
KRAS G12D binding to BRAF, sequence (P62937 whole entry): as the sequence (P62937 whole entry) above

As a reminder, the IC50 is the concentration needed to halve the response being measured. Regarding `CCn1c(-c2cccnc2[C@H](C)OC)c2c3cc(ccc31)-c1cc(O)cc(c1)C[C@H](NC(=O)[C@H](C(C)C)N(C)C(=O)[C@H]1CCN(C(=O)C(F)Cl)C1)C(=O)N1CCC[C@H](N1)C(=O)OCC(C)(C)C2` (stereo partly drawn) [Example 2, (3S)-1-[(2R)-2-chloro-2-fluoro-acetyl]-N-[(1S)-1-[[(8S,14S)-22-ethyl-4-hydroxy-(21M)-21-[2-[(1S)-1-methoxyethyl]-3-pyridyl]-18,18-dimethyl-9,15-dioxo-16-oxa-10,22,28-triazapentacyclo[18.5.2.12,6.110,14.023,27]nonacosa-1(26),2,4,6(29),20,23(27),24-heptaen-8-yl]carbamoyl]-2-methyl-propyl]-N-methyl-pyrrolidine-3-carboxamide], the IC50 came out at 56 nM in the series on KRAS G12D in AGS cells; 156 nM in the series with SW620 cells; 3 nM in series [1]; 37 nM with KRAS G12V in SW620; 25 nM in series [2]; 83 nM in the series with AGS cells. In addition, the 50% inhibitory concentration (IC50) at KRAS G12C-BRAF complex [3] was 6 nM; in [4], 298 nM; in the series on NCI-H358 cells it was 2 nM; against KRAS G12C-BRAF complex [5], 68 nM.
Turning to `CCn1c(-c2cc(N3CCN(C)CC3)cnc2[C@H](C)OC)c2c3cc(ccc31)-c1csc(n1)C[C@H](NC(=O)[C@H](C(C)C)N1CCCC3(CCN(C(=O)[C@H](F)Cl)C3)C1=O)C(=O)N1CCC[C@H](N1)C(=O)OCC(C)(C)C2` (stereo partly drawn) [Example 18, (2S)-2-[2-[(2R)-2-chloro-2-fluoro-acetyl]-6-oxo-2,7-diazaspiro[4.5]decan-7-yl]-N-[(7S,13S)-21-ethyl-(20M)-20-[2-[(1S)-1-methoxyethyl]-5-(4-methylpiperazin-1-yl)-3-pyridyl]-17,17-dimethyl-8,14-dioxo-15-oxa-4-thia-9,21,27,28-tetrazapentacyclo[17.5.2.12,5.19,13.022,26]octacosa-1(25),2,5(28),19,22(26),23-hexaen-7-yl]-3-methyl-butanamide], the IC50 with KRAS G12D in AGS cells was 26 nM; in the series with SW620 cells, 26 nM; in series [1] it was 3 nM; in the series on KRAS G12V in SW620, 28 nM; in [2] it was greater than 10000 nM; with AGS cells it was 19 nM. In addition, the IC50 is 68 nM on KRAS G12C-BRAF complex [3], greater than 10000 nM in series [4], 0.7 nM in the series on NCI-H358 cells and 20 nM against KRAS G12C-BRAF complex [5].
With `CCn1c(-c2cc(N3CCN(C)CC3)cnc2[C@H](C)OC)c2c3cc(ccc31)-c1cc(O)cc(c1)C[C@H](NC(=O)[C@H](C(C)C)N(C)C(=O)[C@H]1CCN(C(=O)[C@H](F)Cl)C1)C(=O)N1CCC[C@H](N1)C(=O)OCC(C)(C)C2` (atropisomer, axis not shown; (M)) [Example 12, (3S)-1-[(2R)-2-chloro-2-fluoro-acetyl]-N-[(1S)-1-[[(8S,14S)-22-ethyl-4-hydroxy-(21M)-21-[2-[(1S)-1-methoxyethyl]-5-(4-methylpiperazin-1-yl)-3-pyridyl]-18,18-dimethyl-9,15-dioxo-16-oxa-10,22,28-triazapentacyclo[18.5.2.12,6.110,14.023,27]nonacosa-1(26),2,4,6(29),20,23(27),24-heptaen-8-yl]carbamoyl]-2-methyl-propyl]-N-methyl-pyrrolidine-3-carboxamide], the IC50 in the series on KRAS G12D in AGS cells amounted to 10 nM; with SW620 cells, 16 nM; in series [1], 6 nM; with KRAS G12V in SW620 it was 12 nM; in series [2] it was 3 nM; in the series on AGS cells it was 16 nM. Also, the IC50 turned out to be 2 nM against KRAS G12C-BRAF complex [3], 6 nM in [4], 5 nM in the series on NCI-H358 cells and 37 nM at KRAS G12C-BRAF complex [5].
Regarding `CCn1c(-c2cc(N3CCN(C)CC3)cnc2[C@H](C)OC)c2c3cc(ccc31)-c1csc(n1)C[C@H](NC(=O)[C@H](C(C)C)N(C)C(=O)[C@H]1CCN(C(=O)[C@H](F)Cl)C1)C(=O)N1CCCC(N1)C(=O)OCC(C)(C)C2` (stereo partly drawn) [Example 10, (3S)-1-[(2R)-2-chloro-2-fluoro-acetyl]-N-[(1S)-1-[[(7S,13S)-21-ethyl-(20M)-20-[2-[(1S)-1-methoxyethyl]-5-(4-methylpiperazin-1-yl)-3-pyridyl]-17,17-dimethyl-8,14-dioxo-15-oxa-4-thia-9,21,27,28-tetrazapentacyclo[17.5.2.12,5.19,13.022,26]octacosa-1(25),2,5(28),19,22(26),23-hexaen-7-yl]carbamoyl]-2-methyl-propyl]-N-methyl-pyrrolidine-3-carboxamide], the IC50 in the series with KRAS G12D in AGS cells was determined as 31 nM; in the series with SW620 cells it was 59 nM; in series [1] it was 3 nM; in the series on KRAS G12V in SW620, 11 nM; with AGS cells, 52 nM; with NCI-H358 cells, 0.4 nM. At KRAS G12C-BRAF complex [5], this compound had an IC50 of 21 nM. Also, the “Remaining at 6 hr in GSH (%)” value in [6] is reported as 85%. Further, the “CL_hep (Human)” value in series [7] (1 μM compound, human hepatocytes 1×10^6 cells/mL) was less than 2.4 mL/min/kg. Moreover, the “Clearance Category” value in series [7] (human hepatocytes) is listed as “low (CL_hep (mL/min/kg)<6.96 is low clearance)”.

Source of the values: patent US20250163072A1, “MACROCYCLIC COMPOUNDS FOR THE TREATMENT OF CANCER” (Hoffmann-La Roche Inc., priority 2021, published 2025).
